These results are taken from PubChem BioAssay (NCI).

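Protocol summary: plate cells (96-well), add compound at 5 concentrations, incubate 48 h, interpolate endpoints linearly. The concentration for 50% growth inhibition is given as GI50. At the TGI there is no net growth.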 A value given as a limit tells only on which side of the number the result lay.

Holding throughout (experiment): inhibition of tumour cell growth, NCI panel, 48 h
The test system of assay [1] is HL-60(TB) leukemia.
For assay [2], the system named is A549 NSCLC.
Assay [3] has as its system SW-620 colon.
Assay [4] has as its system U251 CNS.
Assay [5] deals with 786-0 renal.
Assay [6] has as its system MOLT-4 leukemia.
The subject of assay [7] is HCT-15 colon.
The test system of assay [8] is HCT-116 colon.
In assay [9] the test system is PC-3 prostate.
Assay [10] relates to CCRF-CEM leukemia.

In the case of `O=c1[nH]c(=O)c2cn[nH]c2[nH]1`, the GI50 in assay [1], in [2], in [3], in [4], in [5] and in assay [6] was greater than 100 µM throughout. The GI50 in [7], in assay [8], in assay [9] and in assay [10] was greater than 100 µM in each case. Besides, the TGI in [1], in [2], in assay [3], in assay [4], in assay [5] and in assay [6] was greater than 100 µM throughout. Besides, the TGI in assay [7], in assay [8], in assay [9] and in assay [10] was greater than 100 µM in each case.
Regarding `CCCCCCCCNc1cc2c3c(c1)CCCN3CCC2`, the GI50 in assay [1] is 0.33 µM; in assay [2], 4.26 µM; in [3] it was 2.14 µM; in assay [4] it was 0.39 µM; in [5], 3.31 µM; in assay [6], 1.09 µM. In addition, the GI50 in assay [7] is 10.5 µM; in [8] it was 1.11 µM; in assay [9], 0.926 µM; in assay [10] it was 1.63 µM. In addition, the TGI is 1.85 µM in [1]; 19.3 µM in assay [2]; 13.3 µM in assay [3]; 15.1 µM in assay [4]; 13.7 µM in assay [5]; greater than 100 µM in assay [6]. Besides, the TGI was 38.5 µM in [7], 7.92 µM in [8], 12.8 µM in assay [9] and greater than 100 µM in assay [10].
